# Laboratory results reported in US4738969A, “Substituted aminopyridones and aminoquinolones having histamine H2 -receptor blocking activity” (Smith Kline & French Laboratories Limited, priority 1983, dated 1988).
# What was measured:
# [1] = test system: histamine H2 -receptors; assay: inhibition of histamine-induced tachycardia in the isolated guinea pig right atrium (guinea pig atrium test); format: cell-based; conditions: times more active than the reference compound
# Text: (§1) The measurement of inhibition of histamine-stimulated secretion of gastric acid from the lumen-perfused stomachs of rats anaesthetised with urethane, and the measurement of inhibition of histamine-induced tachycardia in the isolated guinea pig right atrium, are detailed in U.S. Pat. No. 4,385,058.
# [2] = test system: histamine H2 -receptors; assay: inhibition of histamine-stimulated acid secretion in the Heidenhain Pouch Dog; format: in vivo; conditions: intravenous administration, dose levels adjusted to produce similar peak responses
# [3] = test system: histamine H2 -receptors; assay: inhibition of histamine-stimulated secretion of gastric acid from the lumen-perfused stomachs of rats anaesthetised with urethane (lumen-perfused rat test); format: in vivo; conditions: times more active than the reference compound
# Text: These are actions of histamine which, according to Ash and Schild, Brit. J. Pharmac. Chemother. 27 247 (1966), are not mediated by histamine H1 -receptors.
# as §1
compound,measurement,setting,value
"O=c1cc[nH]c(NCCCOc2cccc(CN3CCCCC3)c2)c1 [Example 1, 2-[3-[3-(Piperidinomethyl)phenoxy]propylaminc]-pyrid-4-one]","activity relative to 2-[2-(5-methylimidazol-4-ylmethylthio)ethylamino]pyrid-4-one (Example 16 of U.S. Pat. No. 3,932,644), guinea pig atrium test",[1],over 100 times
same,duration of activity compared with cimetidine,[2],longer duration of activity than cimetidine
same,"activity relative to 2-[2-(5-methylimidazol-4-ylmethylthio)ethylamino]pyrid-4-one (Example 16 of U.S. Pat. No. 3,932,644), lumen-perfused rat test",[3],over 100 times
